Data: patent publication US20170298056A1, “SMALL MOLECULE INHIBITORS OF HIV-1 ENTRY AND METHODS OF USE THEREOF” (Dana-Farber Cancer Institute, Inc., priority 2014, published 2017)

Legend:
[1] = test system: A-MLV; assay: Infection of human PBMC by control A-MLV; format: cell-based, amphotropic murine leukemia virus; conditions: range of tested concentrations
Method: Peripheral blood mononuclear cells (PBMC). Human blood was purchased from Research Blood Components, who obtained a consent firm from each donor, according to the American Association of Blood Banks guidelines, PBMC were isolated from the whole blood using a Ficoll-Paque gradient (Ficoll-Paque PLUS, Amersham Biosciences) and activated at concentration of 10^6 live cells/ml for 3 days in RPMI-PBMC medium (RPMI-1640 supplemented with 20% FBS, 10% IL-2 (Hemagen, Columbia, Md.), 100 μg/ml primocin (InvivoGen, San Diego, Calif.)) with 4 μg/ml phytohemagglutinin (Sigma-Aldrich, St. Louis, Mo.). In some cases, cells were frozen, thawed and activated prior to the assay.
Viral infection assay. Each test compound was serially diluted in DMSO in a 96-well B&W isoplate (PerkinElmer, Boston, Mass.) using an HP D300 Digital Dispenser, to a final volume of 450 nl. DMSO was used as a control. […] The activity of the firefly luciferase, which was used as a reporter protein in the system, was measured with a Centro LB 960 luminometer (Berthold Technologies, Oak Ridge, Tenn.). One hundred microliters of assay buffer (15 mM MgSO4, 15 mM KH2PO4/K2HPO4 pH 7.8, 1 mM ATP and 1 mM DTT) was injected to each well, followed by a 50 μl injection of 1 mM Dluciferin potassium salt (BD Pharmingen, San Jose, Calif.); luminescence was measured for 2 sec. […]

[2] = test system: F-luc expression in H-Fluc4 cells; assay: Specificity control assay (induced firefly luciferase, H-Fluc4 cells); format: cell-based
Method: H-JRFL#1336 (effector) and H-Fluc4 (control) cells were grown in DMEM containing 10% FBS, 100 μg/ml streptomycin, 100 units/ml penicillin, 200 μg/ml G418, 1 μg/ml puromycin and 2 μg/ml doxycycline. H-JRFL#13 cells carry an HIV-1JR-FL env gene that is induced by growing the cells in the absence of doxycycline (Tet-Off expression system). H-Fluc4 cells, which carry a firefly luciferase gene that is induced in the absence of doxycycline, were used as specificity controls. Both cell lines were derived from HeLa cells and constitutively express the tetracycline-regulated transactivator (Tet-Off expression system). […]
H-JRFL#13 or H-FLuc4 cells were washed thrice, detached with StemPro Accutase, centrifuged at 200×g for 6 minutes at 10° C. and seeded in DMEM containing 10% tetracycline-approved FBS, 100 μg/ml streptomycin, 100 units/ml penicillin, 100 μg/ml G418, 1 μg/ml puromycin and without Phenol Red. […] Firefly luciferase activity was measured using an EnVision Multilabel Plate Reader (PerkinElmer, Boston, Mass.). […]
To identify new molecules that potentially affect HIV-1 entry, a cell-cell fusion assay that mimics the entry of HIV-1 into cells was established (FIG. 1a). The assay uses a firefly luciferase (F-luc) readout to measure the fusion of HeLa effector cells that express the Envs from a primary HIV-1 strain and target cells coexpressing the CD4 and CCR5 receptors. […]

Question: What does the source list for `O=C(N/N=C/c1ccc(O)cc1)Nc1cccc2nsnc12` [Compound 18A]?
Answer: effect on A-MLV infection [1]: No significant effect; IC50 [2]: 15.1 ± 1.1 µM
